The amount remaining is what is left of the initial amount, in per cent. Read a low amount remaining as more turnover. One may read the AUC(0-inf) as total exposure, with the tail of the curve extrapolated. The low end stands for low exposure, the high end for high exposure. The term Cmax denotes the highest concentration seen after dosing. The term Tmax denotes the time from dosing to the highest level.

Molecules are shown by their SMILES. Where a SMILES comes first, the peptide text is derived from it. Bridges are numbered along the chain shown (N, C = ends).

A short description of series [1]: in vivo. The note with it: male, SD, rat, iv, 20 nmol/kg.
Series [2] addresses T1, neutral endopeptidase (NEP) (Homo sapiens, UniProt P08473).
T1 construct: purchased R&D Systems, Inc., U.S.A
As to the kind of experiment: Resistance to peptidase: stability to hNEP (HPLC residual rate). It counts as in vitro ADME. The note with it: human, isolated enzyme neprilysin, pH 6.5. As for the experimental part:
The experiment was conducted in N=2 for each sample. Native CNP-22, chimeric CNP (A, B) (structure mentioned already; final concentration: 0.5 μg/mL) and 100 μL of reaction solution (medium: 20 mM MES, pH 6.5) of human type recombinant neutral endopeptidase (hNEP, manufactured by R&D Systems, Inc., U.S.A.) were prepared. […] Distilled water (100 μL) was added to the sample after boiling followed by well mixing and 50 μL thereof was analyzed in a water-acetonitrile system using a high-performance liquid chromatography system LC-10A (manufactured by Shimadzu). The analytical data were analyzed by a Chromato-Pack (CRA-10A, manufactured by Shimadzu) and area of the peak zone of unchanged substance was calculated. The area of average zone of unchanged substance when made to react at 37° C. was divided by the area of average zone of the boiled sample to calculate the residual rate of the unchanged substance after 1 hour.

Series [3] in a line: CNP immunoreactivity concentration in plasma after administration to rats (competitive RIA), pharmacokinetic parameters (Example 2). In kind it is in vivo, rat. The note with it: rat, plasma, 0.1 mg/kg, male rats, N = 3, mean ± SD; for half-life: read-out: T½; for C0: extrapolated value. As for the experimental part:
Pharmacokinetic parameters were calculated from the resulting changes in immunoreactivity concentrations in plasma. At that time, WinNonlin Professional Ver. 4.0.1 (manufactured by Pharsight Corporation, U.S.A.) was used as the analytical software. Method for the calculation of each parameter is mentioned as follows.
Concentration at time 0 (C0; extrapolated value, ng/mL), area under the curve for concentration in plasma vs. time (AUC; ng.min/mL) and quenching half-life (T½; minute(s)) were calculated as follows. C0 was calculated as a value at time by means of extrapolation from the changes in immunoreactivity concentration in plasma at each blood collection period. AUC was calculated by a trapezoidal method using the immunoreactivity concentrations in plasma at all measuring points (t) and an extrapolated value until the infinitive time was determined. T½ was calculated by means of a least-squares method from the inclination of a straight line connecting several points in a disappearing phase of the immunoreactivity concentration in plasma. In the case of a subcutaneous administration, C0 was not determined but the maximum concentration in plasma (Cmax; ng/mL) and the time reaching the maximum concentration in plasma (Tmax; min) were determined.
Changes in CNP immunoreactivity concentration in plasma of native CNP-22 and chimeric peptide (chimeric CNP) where a half-life-extension peptide was added to CNP were investigated.
The experiment was conducted in the same manner as in Example 1 that rats where polyethylene tube was previously inserted into thigh artery were used under an anesthetizing condition with Nembutal and male SD strain rats of 7 weeks age (purchased from Nippon Charles River) were used where one group comprised 3 rats. […] At that time, a rabbit polyclonal antibody (#2) recognizing a ring part of native CNP-22 was used as an antibody and ^125I-[Tyr^0] CNP was used as a labeling compound. Pharmacokinetic analysis was carried out by the same method as in Example 1.

Series [4] deals with T2, NEP (Rattus norvegicus, UniProt P07861).
T2 construct: male SD strain rats of 7 weeks age (Nippon Charles River; body weight: ca. 250 g) were used; from tissue; host or cells: whole animal: male SD rats (Nippon Charles River), in vivo
T2 sequence (P07861 1-750): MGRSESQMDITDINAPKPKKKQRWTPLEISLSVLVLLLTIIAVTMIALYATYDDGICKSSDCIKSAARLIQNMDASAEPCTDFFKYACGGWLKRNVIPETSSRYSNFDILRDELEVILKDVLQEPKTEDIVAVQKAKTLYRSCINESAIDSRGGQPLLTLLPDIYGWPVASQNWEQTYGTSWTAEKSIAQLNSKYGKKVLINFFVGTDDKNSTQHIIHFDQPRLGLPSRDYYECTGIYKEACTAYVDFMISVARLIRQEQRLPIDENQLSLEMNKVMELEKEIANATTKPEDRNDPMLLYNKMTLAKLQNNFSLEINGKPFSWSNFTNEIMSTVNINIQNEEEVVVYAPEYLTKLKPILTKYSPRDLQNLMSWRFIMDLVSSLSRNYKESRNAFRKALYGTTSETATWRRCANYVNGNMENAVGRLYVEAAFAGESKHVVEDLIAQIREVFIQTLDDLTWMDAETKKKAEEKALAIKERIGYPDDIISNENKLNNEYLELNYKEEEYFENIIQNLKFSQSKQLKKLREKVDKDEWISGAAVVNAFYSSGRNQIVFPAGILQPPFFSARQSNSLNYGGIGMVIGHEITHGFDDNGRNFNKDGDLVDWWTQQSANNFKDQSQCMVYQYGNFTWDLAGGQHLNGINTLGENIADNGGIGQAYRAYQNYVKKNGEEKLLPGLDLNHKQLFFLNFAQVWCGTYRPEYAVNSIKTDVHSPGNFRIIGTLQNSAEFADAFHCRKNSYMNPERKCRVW
As to the kind of experiment: NEP resistance in vivo: influence of NEP inhibitor on pharmacokinetic parameters after intravenous administration. The note with it: rat, in vivo. As for the experimental part:
Further, NEP resistance in vivo of the native CNP-22 and chimeric CNP (B) was evaluated using the effect by the joint use with an NEP inhibitor affecting on changes in CNP immunoreactivity concentration in plasma after the intravenous administration as an index. This test was also carried out using rats into which a polyethylene tube (PE-50, manufactured by Clay […].) was inserted into thigh artery for collection of blood and rats into which a polyethylene tube (PE-10, manufactured by Clay […].) was inserted into thigh vein for administration of an NEP inhibitor under an anesthetizing condition using Nembutal. As a test system, male SD strain rats of 7 weeks age (Nippon Charles River; body weight: ca. 250 g) were used for the experiment where one group comprised 3 rats. […] Time for the administration was from 10 minutes before the administration of the native CNP-22 or the chimeric CNP (B) to completion of blood collection which was 60 minutes after the administration. The native CNP-22 and the chimeric CNP (B) each was administered into the tail vein in a dose of 20 μg/kg and the blood before starting the administration of NEP inhibitor (-10 minutes), before the administration of CNP (0 minute) and until after 60 minutes from the administration was collected by a thigh artery cannula. After a stabilizer and an anticoagulant were added to the collected blood, it was centrifuged to give plasma and the immunoreactivity concentration in the plasma was measured by the above-mentioned competitive RIA. The pharmacokinetic analysis was carried out by the same method as in Example 1.

T1 sequence (P08473 whole entry): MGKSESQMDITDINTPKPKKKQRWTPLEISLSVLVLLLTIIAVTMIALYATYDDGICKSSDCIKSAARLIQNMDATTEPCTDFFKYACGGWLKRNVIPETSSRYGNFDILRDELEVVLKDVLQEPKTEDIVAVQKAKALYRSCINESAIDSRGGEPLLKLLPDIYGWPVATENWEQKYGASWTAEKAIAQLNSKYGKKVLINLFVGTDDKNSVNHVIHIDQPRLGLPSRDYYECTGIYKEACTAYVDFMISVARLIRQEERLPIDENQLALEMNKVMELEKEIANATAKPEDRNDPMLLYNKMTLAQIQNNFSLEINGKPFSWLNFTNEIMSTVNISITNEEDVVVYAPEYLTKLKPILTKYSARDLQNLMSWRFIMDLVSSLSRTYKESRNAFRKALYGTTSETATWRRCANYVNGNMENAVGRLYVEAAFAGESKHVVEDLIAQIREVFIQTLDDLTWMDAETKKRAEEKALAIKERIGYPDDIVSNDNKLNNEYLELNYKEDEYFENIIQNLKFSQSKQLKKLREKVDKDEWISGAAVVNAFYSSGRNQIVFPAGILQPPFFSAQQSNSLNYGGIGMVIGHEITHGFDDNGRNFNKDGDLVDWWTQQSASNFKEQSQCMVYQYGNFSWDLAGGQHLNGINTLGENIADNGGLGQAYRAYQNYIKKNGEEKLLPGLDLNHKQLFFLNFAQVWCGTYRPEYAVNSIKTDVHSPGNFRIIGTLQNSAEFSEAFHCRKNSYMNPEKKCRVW

In series [1], `CC[C@H](C)[C@@H]1NC(=O)[C@H](CCCNC(=N)N)NC(=O)[C@H](CC(=O)O)NC(=O)[C@H](CC(C)C)NC(=O)[C@H](CCCCN)NC(=O)[C@H](CC(C)C)NC(=O)CNC(=O)[C@H](Cc2ccccc2)NC(=O)[C@@H](N)CSSC[C@@H](C(=O)N[C@@H](C)C(=O)NCC(=O)N[C@@H](CO)C(=O)N[C@H](C(=O)N[C@@H](CC(=O)O)C(=O)N[C@@H](Cc2c[nH]cn2)C(=O)N[C@@H](CCCCN)C(=O)NCC(=O)N[C@@H](CCCCN)C(=O)N[C@@H](CCC(N)=O)C(=O)N[C@@H](CCCNC(=N)N)C(=O)N[C@@H](CCCCN)C(=O)N[C@H](C(=O)N[C@H](C(=O)N[C@@H](CC(=O)O)C(=O)N[C@@H](Cc2c[nH]cn2)C(=O)N2CCC[C@H]2C(=O)N[C@@H](CCCCN)C(=O)N[C@@H](CCCNC(=N)N)C(=O)O)C(C)C)C(C)C)C(C)C)NC(=O)CNC(=O)[C@H](CC(C)C)NC(=O)CNC(=O)[C@H](CO)NC(=O)[C@H](CCSC)NC(=O)[C@H](CO)NC(=O)CNC1=O` [Chimeric CNP (K)] (H-CFGLKLDRIGSMSGLGCAGSVDHKGKQRKVVDHPKR-OH; disulfide 1-17; N-terminus and C-terminus assumed) yielded a half-life of 18 min.
As for `CC[C@H](C)[C@@H]1NC(=O)[C@H](CCCNC(=N)N)NC(=O)[C@H](CC(=O)O)NC(=O)[C@H](CC(C)C)NC(=O)[C@H](CCCCN)NC(=O)[C@H](CC(C)C)NC(=O)CNC(=O)[C@H](Cc2ccccc2)NC(=O)[C@@H](NC(=O)[C@@H](NC(=O)[C@H](CCC(N)=O)NC(=O)[C@H](CCC(N)=O)NC(=O)[C@H](CCCNC(=N)N)NC(=O)[C@H](CCCCN)NC(=O)[C@H](CCC(=O)O)NC(=O)[C@H](CO)NC(=O)[C@H](CCCCN)NC(=O)[C@H](CCCCN)NC(=O)[C@@H]2CCCN2C(=O)[C@@H]2CCCN2C(=O)[C@H](C)NC(=O)[C@H](CCCCN)NC(=O)[C@H](CC(C)C)NC(=O)[C@H](CCC(N)=O)NC(=O)[C@@H]2CCCN2C(=O)[C@@H](N)CCCNC(=N)N)C(C)C)CSSC[C@@H](C(=O)O)NC(=O)CNC(=O)[C@H](CC(C)C)NC(=O)CNC(=O)[C@H](CO)NC(=O)[C@H](CCSC)NC(=O)[C@H](CO)NC(=O)CNC1=O` [Chimeric CNP (A)] (H-RPQLKAPPKKSEKRQQVCFGLKLDRIGSMSGLGC-OH; disulfide 18-34; N-terminus and C-terminus assumed), the fraction remaining at 1 h, 0.5 μg/mL in series [2] was 84.3%. Further, in series [3] (sc, subcutaneous), the AUC(0-inf) is 24.9 ng·h/mL, the concentration peaked (Cmax) at 27.9 ± 2.7 ng/mL, the Tmax is 13.3 min and the half-life stood at 20.7 ± 7.5 min. In series [3] (intravenous), the area under the curve AUC(0-inf) was 107 ng·h/mL, the C0 was 1030 ± 358 ng/mL and the half-life is 21.7 ± 6.1 min.
`CC[C@H](C)[C@@H]1NC(=O)[C@H](CCCNC(=N)N)NC(=O)[C@H](CC(=O)O)NC(=O)[C@H](CC(C)C)NC(=O)[C@H](CCCCN)NC(=O)[C@H](CC(C)C)NC(=O)CNC(=O)[C@H](Cc2ccccc2)NC(=O)[C@@H](NC(=O)CNC(=O)[C@H](CCCCN)NC(=O)[C@H](CO)NC(=O)[C@H](CC(C)C)NC(=O)CN)CSSC[C@@H](C(=O)N[C@H](C(=O)N[C@@H](CCC(N)=O)C(=O)N[C@@H](CCC(N)=O)C(=O)N[C@@H](CCCNC(=N)N)C(=O)N[C@@H](CCCCN)C(=O)N[C@@H](CC(=O)O)C(=O)N[C@@H](CO)C(=O)N[C@@H](CCCCN)C(=O)N[C@@H](CCCCN)C(=O)N2CCC[C@H]2C(=O)N2CCC[C@H]2C(=O)N[C@@H](C)C(=O)N[C@@H](CCCCN)C(=O)N[C@@H](CC(C)C)C(=O)N[C@@H](CCC(N)=O)C(=O)N2CCC[C@H]2C(=O)N[C@@H](CCCNC(=N)N)C(=O)O)C(C)C)NC(=O)CNC(=O)[C@H](CC(C)C)NC(=O)CNC(=O)[C@H](CO)NC(=O)[C@H](CCSC)NC(=O)[C@H](CO)NC(=O)CNC1=O` [Chimeric CNP (J)] (H-GLSKGCFGLKLDRIGSMSGLGCVQQRKDSKKPPAKLQPR-OH; disulfide 6-22; N-terminus and C-terminus assumed) displayed a half-life in series [1] of 31.2 min.
For the compound `CC[C@H](C)[C@@H]1NC(=O)[C@H](CCCNC(=N)N)NC(=O)[C@H](CC(=O)O)NC(=O)[C@H](CC(C)C)NC(=O)[C@H](CCCCN)NC(=O)[C@H](CC(C)C)NC(=O)CNC(=O)[C@H](Cc2ccccc2)NC(=O)[C@@H](N)CSSC[C@@H](C(=O)N[C@H](C(=O)N[C@@H](CCC(N)=O)C(=O)N[C@@H](CCC(N)=O)C(=O)N[C@@H](CCCNC(=N)N)C(=O)N[C@@H](CCCCN)C(=O)N[C@@H](CCC(=O)O)C(=O)N[C@@H](CO)C(=O)N[C@@H](CCCCN)C(=O)N[C@@H](CCCCN)C(=O)N2CCC[C@H]2C(=O)N2CCC[C@H]2C(=O)N[C@@H](C)C(=O)N[C@@H](CCCCN)C(=O)N[C@@H](CC(C)C)C(=O)N[C@@H](CCC(N)=O)C(=O)N2CCC[C@H]2C(=O)N[C@@H](CCCNC(=N)N)C(=O)O)C(C)C)NC(=O)CNC(=O)[C@H](CC(C)C)NC(=O)CNC(=O)[C@H](CO)NC(=O)[C@H](CCSC)NC(=O)[C@H](CO)NC(=O)CNC1=O` [Chimeric CNP (B)] (H-CFGLKLDRIGSMSGLGCVQQRKESKKPPAKLQPR-OH; disulfide 1-17; N-terminus and C-terminus assumed), the share remaining at 1 h, 0.5 μg/mL in series [2] was 83.8%. Besides, in series [3] (sc, subcutaneous), the AUC(0-inf) was 28.1 ng·h/mL, the concentration peaked (Cmax) at 32.8 ± 7.9 ng/mL, the Tmax is 10 min and the half-life amounted to 24 ± 9.7 min. In addition, in series [3] (intravenous), the AUC(0-inf) was 153 ng·h/mL, the C0 is 1470 ± 749 ng/mL and the half-life stood at 36.2 ± 2.3 min. Also, in series [4] (male, SD, iv, 0.02 mg/kg), the “AUC0→∞” value came to 1342 ± 168 ng·min/mL, the C0 was found to be 203 ± 71 ng/mL and the T½ stood at 12.7 ± 1.2 min. For the same compound, in series [4] (male, SD, iv, 0.02 mg/kg, AUC0→∞), the AUC(0-inf) was 24.5 ng·h/mL. In series [4] (male, SD, iv, 0.02 mg/kg, C0), this compound displayed a C0 of 253 ± 15 ng/mL. In addition, the half-life in series [4] (male, SD, iv, 0.02 mg/kg, T½) amounted to 14.9 ± 3.1 min. Besides, the “decomposition by NEP in the body of the rat” value in series [4] is given as “hardly decomposed by NEP”.

Values taken from patent US8551937B2, “Peptide having an extending action for half-life of object peptide in plasma” (priority 2008, dated 2013).
